Values joined by “and” are separate entries in the source; they are usually repeats but may differ in a detail not shown here. Equal entries are not always repeated. Inconclusive results and toxic doses are left out.
Test system: P388 leukemia ip, CD2F1 mice, survival T/C
Test: NCI In Vivo Anticancer Drug Screen. Data for tumor model P388 Leukemia (intraperitoneal) in CD2F1 (CDF1) mice
Conditions: endpoint: median survival time, higher = longer survival
Procedure, shortened: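 Mice carrying the transplanted tumor received test compound or vehicle. Survival was recorded in each group, and the value is the treated-group measurement divided by that of the vehicle-treated control group.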

[1] = dose: 50.0 mg/kg/injection, schedule: Q01DX005 (ip), vehicle: saline with Tween-80
[2] = dose: 100.0 mg/kg/injection, schedule: Q01DX005 (ip), vehicle: saline with Tween-80
[3] = dose: 200.0 mg/kg/injection, schedule: Q01DX005 (ip), vehicle: saline with Tween-80
[4] = dose: 50.0 mg/kg/injection, schedule: Q01DX005 (ip), vehicle: Klucel (hydroxypropylcellulose) (HPC)
[5] = dose: 100.0 mg/kg/injection, schedule: Q01DX005 (ip), vehicle: Klucel (hydroxypropylcellulose) (HPC)
[6] = dose: 60.0 mg/kg/injection, schedule: Q01DX005 (ip), vehicle: saline with Tween-80
[7] = dose: 120.0 mg/kg/injection, schedule: Q01DX005 (ip), vehicle: saline with Tween-80
[8] = dose: 50.0 mg/kg/injection, schedule: Q01DX005 (ip), vehicle: saline
[9] = dose: 100.0 mg/kg/injection, schedule: Q01DX005 (ip), vehicle: saline
[10] = dose: 60.0 mg/kg/injection, schedule: Q01DX005 (ip), vehicle: saline
[11] = dose: 120.0 mg/kg/injection, schedule: Q01DX005 (ip), vehicle: saline
[12] = dose: 240.0 mg/kg/injection, schedule: Q01DX005 (ip), vehicle: saline

`C=CCOC(=O)C(NC(=O)OCCCC)NC(=O)OCCCC` was tested, and the T/C [1] was 103 % of control, the T/C [2] was 100 % of control and the T/C [3] was 98 % of control.

`[Fe].[c-]1[c-][c-][c-](CNc2ncnc3nc[nH]c23)[c-]1.[c-]1[c-][c-][cH-][c-]1` was tested, and the T/C (dose: 12.5 mg/kg/injection, schedule: Q01DX005 (ip), vehicle: Klucel (hydroxypropylcellulose) (HPC)) was 97 % of control, the T/C (dose: 25.0 mg/kg/injection, schedule: Q01DX005 (ip), vehicle: Klucel (hydroxypropylcellulose) (HPC)) was 100 % of control and the T/C [4] was 86 % of control. The T/C [5] was 91 % of control.

In the case of `Nc1cc(Cl)c2[nH]cnc2n1`, the T/C (dose: 25.0 mg/kg/injection, schedule: Q01DX005 (ip), vehicle: distilled water + Tween-80) is reported as 102 % of control, the T/C (dose: 50.0 mg/kg/injection, schedule: Q01DX005 (ip), vehicle: distilled water + Tween-80) is reported as 111 % of control and the T/C (dose: 200.0 mg/kg/injection, schedule: Q01DX005 (ip), vehicle: distilled water + Tween-80) is reported as 152 % of control.

`C=C(C(=C)n1nnc(C(=O)OC)c1C(=O)OC)n1nnc(C(=O)OC)c1C(=O)OC` was tested, and the T/C [6] was 102 % of control, the T/C [7] was 101 % of control and the T/C (dose: 240.0 mg/kg/injection, schedule: Q01DX005 (ip), vehicle: saline with Tween-80) was 93 % of control.

With `C1COCCOCCOCCOCCO1.[Br][Sn]([Br])([Br])[Br]` the T/C (dose: 7.5 mg/kg/injection, schedule: Q01DX005 (ip), vehicle: Klucel (hydroxypropylcellulose) (HPC)) was 96 % of control, the T/C (dose: 15.0 mg/kg/injection, schedule: Q01DX005 (ip), vehicle: Klucel (hydroxypropylcellulose) (HPC)) was 102 % of control and the T/C (dose: 30.0 mg/kg/injection, schedule: Q01DX005 (ip), vehicle: Klucel (hydroxypropylcellulose) (HPC)) was 105 % of control.

In the case of `CCNC(=O)C(C)O` (stereo not given), the T/C [8] is reported as 102 % of control, the T/C [9] is reported as 102 % of control and the T/C (dose: 200.0 mg/kg/injection, schedule: Q01DX005 (ip), vehicle: saline) is reported as 98 % of control.

In the case of `CN(C)c1cnc(N)nc1N`, the T/C (dose: 25.0 mg/kg/injection, schedule: Q01DX005 (ip), vehicle: saline) is reported as 95 % of control and 97 % of control, the T/C [8] is reported as 97 % of control and the T/C [9] is reported as 95 % of control.

For `CSc1nc(N)c2cnn(C3OC(CO)C(O)C3O)c2n1` (stereo not given), the T/C [1] was 100 % of control, the T/C [2] was 109 % of control and the T/C [3] was 100 % of control.

In the case of `CCC(=O)Nc1c(O)c(Br)c(NC(=O)CC)c(O)c1Br`, the T/C [10] is reported as 104 % of control, the T/C [11] is reported as 100 % of control and the T/C [12] is reported as 105 % of control.

`O=CNCc1ccc(S(=O)(=O)F)cc1` was tested, and the T/C (dose: 12.5 mg/kg/injection, schedule: Q01DX009 (ip), vehicle: other) was 93 % of control, the T/C (dose: 25.0 mg/kg/injection, schedule: Q01DX009 (ip), vehicle: other) was 92 % of control and the T/C (dose: 50.0 mg/kg/injection, schedule: Q01DX009 (ip), vehicle: other) was 99 % of control. The T/C (dose: 100.0 mg/kg/injection, schedule: Q01DX009 (ip), vehicle: other) was 100 % of control.

`OC1CC2CCc3[nH]c4ccccc4c3CCN(C1)C2` (stereo not given) was tested, and the T/C (dose: 5.5 mg/kg/injection, schedule: Q01DX005 (ip), vehicle: Klucel (hydroxypropylcellulose) (HPC)) was 91 % of control, the T/C (dose: 11.0 mg/kg/injection, schedule: Q01DX005 (ip), vehicle: Klucel (hydroxypropylcellulose) (HPC)) was 96 % of control and the T/C (dose: 22.0 mg/kg/injection, schedule: Q01DX005 (ip), vehicle: Klucel (hydroxypropylcellulose) (HPC)) was 100 % of control. For the same compound, the T/C (dose: 44.0 mg/kg/injection, schedule: Q01DX005 (ip), vehicle: Klucel (hydroxypropylcellulose) (HPC)) was 100 % of control.

`Cc1nc2c(=O)nc3n(c2nc1C)CCS3` was tested, and the T/C (dose: 100.0 mg/kg/injection, schedule: Q01DX001 (ip), vehicle: saline) was 104 % of control, the T/C (dose: 200.0 mg/kg/injection, schedule: Q01DX001 (ip), vehicle: saline) was 102 % of control and the T/C (dose: 400.0 mg/kg/injection, schedule: Q01DX001 (ip), vehicle: saline) was 104 % of control.

For `CC(C)C(NC(=O)C1CCCN1)P(=O)(O)O` (stereo not given), the T/C [10] was 101 % of control, the T/C [11] was 104 % of control and the T/C [12] was 104 % of control.

In the case of `COc1ccc(C(=O)Cc2nc3nnc(NC(=O)Nc4ccc(Cl)cc4)n3nc2CC(=O)c2ccc(OC)cc2)cc1`, the T/C [10] is reported as 97 % of control, the T/C [11] is reported as 94 % of control and the T/C [12] is reported as 95 % of control.

`C=CCC12C=C(OC)C(=O)C=C1OC(c1ccc3c(c1)OCO3)C2C` (stereo not given) was tested, and the T/C (dose: 16.25 mg/kg/injection, schedule: Q01DX005 (ip), vehicle: Klucel (hydroxypropylcellulose) (HPC)) was 104 % of control, the T/C (dose: 32.5 mg/kg/injection, schedule: Q01DX005 (ip), vehicle: Klucel (hydroxypropylcellulose) (HPC)) was 104 % of control and the T/C (dose: 65.0 mg/kg/injection, schedule: Q01DX005 (ip), vehicle: Klucel (hydroxypropylcellulose) (HPC)) was 94 % of control. The T/C (dose: 130.0 mg/kg/injection, schedule: Q01DX005 (ip), vehicle: Klucel (hydroxypropylcellulose) (HPC)) was 94 % of control.

`C[C@@H]1CCC2=C(CO)C(=O)O[C@@]23CC(C)(C)[C@H]2O[C@]123` was tested, and the T/C (dose: 2.25 mg/kg/injection, schedule: Q01DX005 (ip), vehicle: Klucel (hydroxypropylcellulose) (HPC)) was 98 % of control, the T/C (dose: 4.5 mg/kg/injection, schedule: Q01DX005 (ip), vehicle: Klucel (hydroxypropylcellulose) (HPC)) was 97 % of control and the T/C (dose: 9.0 mg/kg/injection, schedule: Q01DX005 (ip), vehicle: Klucel (hydroxypropylcellulose) (HPC)) was 98 % of control. The T/C (dose: 18.0 mg/kg/injection, schedule: Q01DX005 (ip), vehicle: Klucel (hydroxypropylcellulose) (HPC)) was 100 % of control and the T/C (dose: 36.0 mg/kg/injection, schedule: Q01DX005 (ip), vehicle: Klucel (hydroxypropylcellulose) (HPC)) was 103 % of control.

With `Cc1ccc(S(=O)(=O)c2cc3ccccc3oc2=O)cc1` the T/C [6] was 91 % of control and the T/C [7] was 88 % of control.

For `CCN1C[C@@]2(C)CCC(OC)C34[C@H]2[C@@H](OC(C)=O)C2(OCO[C@]25C[C@@H](OC)C2C[C@@]3(O)[C@H]5C2O)[C@@H]14` (stereo not given in full), the T/C (dose: 4.0 mg/kg/injection, schedule: Q01DX005 (ip), vehicle: saline with Tween-80) was 100 % of control, the T/C (dose: 8.0 mg/kg/injection, schedule: Q01DX005 (ip), vehicle: saline with Tween-80) was 99 % of control and the T/C (dose: 16.0 mg/kg/injection, schedule: Q01DX005 (ip), vehicle: saline with Tween-80) was 97 % of control. The T/C (dose: 32.0 mg/kg/injection, schedule: Q01DX005 (ip), vehicle: saline with Tween-80) was 107 % of control and the T/C (dose: 64.0 mg/kg/injection, schedule: Q01DX005 (ip), vehicle: saline with Tween-80) was 108 % of control.

In the case of `CC(C)CC(=O)CC1(C)CCC(c2ccoc2)O1` (stereo not given), the T/C (dose: 25.0 mg/kg/injection, schedule: Q01DX009 (ip), vehicle: saline with Tween-80) is reported as 102 % of control, the T/C (dose: 50.0 mg/kg/injection, schedule: Q01DX009 (ip), vehicle: saline with Tween-80) is reported as 101 % of control and the T/C (dose: 100.0 mg/kg/injection, schedule: Q01DX009 (ip), vehicle: saline with Tween-80) is reported as 107 % of control.

With `Cc1cc2c(cc1C)C(=O)C(N1CCOCC1)CCO2` (stereo not given) the T/C (dose: 100.0 mg/kg/injection, schedule: Q04DX003 (ip), vehicle: saline with Tween-80) was 99 % of control, the T/C (dose: 200.0 mg/kg/injection, schedule: Q04DX003 (ip), vehicle: saline with Tween-80) was 99 % of control and the T/C (dose: 400.0 mg/kg/injection, schedule: Q04DX003 (ip), vehicle: saline with Tween-80) was 96 % of control.

In the case of `COc1ccc2c(NCCCCCCNc3c4ccccc4nc4cc(OC)ccc34)c3ccccc3nc2c1`, the T/C (dose: 0.62 mg/kg/injection, schedule: Q## X009 (ip), vehicle: lactic acid) is reported as 151 % of control, the T/C (dose: 0.63 mg/kg/injection, schedule: Q01DX009 (ip), vehicle: other) is reported as 119 % of control and the T/C (dose: 1.25 mg/kg/injection, schedule: Q## X009 (ip), vehicle: lactic acid) is reported as 170 % of control. The T/C (dose: 2.5 mg/kg/injection, schedule: Q## X009 (ip), vehicle: lactic acid) was 170 % of control, the T/C (dose: 5.0 mg/kg/injection, schedule: Q01DX009 (ip), vehicle: other) was 154 % of control and the T/C (dose: 5.0 mg/kg/injection, schedule: Q## X009 (ip), vehicle: lactic acid) was 164 % of control. For the same compound, the T/C (dose: 10.0 mg/kg/injection, schedule: Q01DX009 (ip), vehicle: other) was 110 % of control and the T/C (dose: 10.0 mg/kg/injection, schedule: Q## X009 (ip), vehicle: lactic acid) was 86 % of control.

For `Cc1c2noc1CCCCCCCCCCC2`, the T/C [4] was 104 % of control, the T/C [5] was 110 % of control and the T/C (dose: 200.0 mg/kg/injection, schedule: Q01DX005 (ip), vehicle: Klucel (hydroxypropylcellulose) (HPC)) was 102 % of control.

For `CCC[CH2][Sn]([CH2]CCC)([O]S(=O)c1ccccc1)[O]S(=O)c1ccccc1` (stereo not given), the T/C (dose: 3.12 mg/kg/injection, schedule: Q01DX001 (ip), vehicle: saline with Tween-80) was 103 % of control and the T/C (dose: 6.25 mg/kg/injection, schedule: Q01DX001 (ip), vehicle: saline with Tween-80) was 119 % of control.
